Source: ChEMBL document CHEMBL1201862, “PubChem BioAssay data set” (2004)
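The compound was tested at five concentrations on cells cultured in 96-well plates, with a 48-hour exposure period. At the GI50, growth is halved.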 Activity calls are given as the source filed them. Cut-off read from the data, not from the text of the source: active = GI50 up to about 1.1 µM and inactive = higher.

Columns and labels:
Assay in all cases: NCI tumour cell line growth inhibition, 48 h
UACC-62 = system: UACC-62
IGROV-1 = system: IGROV-1
RXF 631 = system: RXF 631
LXFL 529 = system: LXFL 529
A498 = system: A498
M19-MEL = system: M19-MEL
OVCAR-3 = system: OVCAR-3
EKVX = system: EKVX
HOP-18 = system: HOP-18
SK-MEL-2 = system: SK-MEL-2
SK-MEL-5 = system: SK-MEL-5
HCC 2998 = system: HCC 2998
TK-10 = system: TK-10
DMS-114 = system: DMS-114
HCT-15 = system: HCT-15
HCT-116 = system: HCT-116
HL-60 = system: HL-60
DLD-1 = system: DLD-1
HT-29 = system: HT-29
U-251 = system: U-251
COLO 205 = system: COLO 205
MOLT-4 = system: MOLT-4
SNB-78 = system: SNB-78
SK-OV-3 = system: SK-OV-3
UO-31 = system: UO-31
M14 = system: M14
SNB-19 = system: SNB-19
KM12 = system: KM12
OVCAR-8 = system: OVCAR-8
SF-539 = system: SF-539
OVCAR-4 = system: OVCAR-4
DMS-273 = system: DMS-273
RXF 393 = system: RXF 393
Malme-3M = system: Malme-3M
NCI-H23 = system: NCI-H23
XF498 = system: XF498
SK-MEL-28 = system: SK-MEL-28
UACC-257 = system: UACC-257
A549 = system: A549
SNB-75 = system: SNB-75
CCRF-CEM = system: CCRF-CEM
SN12C = system: SN12C
SF-268 = system: SF-268
NCI-H226 = system: NCI-H226
NCI-H460 = system: NCI-H460
CAKI-1 = system: CAKI-1
SW-620 = system: SW-620
KM-20L2 = system: KM-20L2
RPMI-8226 = system: RPMI-8226
OVCAR-5 = system: OVCAR-5
HOP-62 = system: HOP-62
SF-295 = system: SF-295
LOX IMVI = system: LOX IMVI
K562 = system: K562
SR = system: SR
ACHN = system: ACHN
786-0 = system: 786-0
NCI-H522 = system: NCI-H522

Cc1c(Cl)ccc2c1NC(=O)C2(O)C(C(=O)c1ccccc1)c1ccccc1 (centres undefined)
GI50 (UACC-62): 19.5 µM (inactive)
GI50 (IGROV-1): > 100 µM (inactive)
GI50 (RXF 631): 62.2 µM (inactive)
GI50 (LXFL 529): 57.3 µM (inactive)
GI50 (A498): 24 µM (inactive)
GI50 (M19-MEL): 14.7 µM (inactive)
GI50 (OVCAR-3): > 10 µM (inactive)
GI50 (EKVX): 43.3 µM (inactive)
GI50 (HOP-18): 52.4 µM (inactive)
GI50 (SK-MEL-2): > 100 µM (inactive)
GI50 (SK-MEL-5): 23.3 µM (inactive)
GI50 (HCC 2998): 97.9 µM (inactive)
GI50 (TK-10): 52 µM (inactive)
GI50 (DMS-114): 21.9 µM (inactive)
GI50 (HCT-15): 45.7 µM
GI50 (HCT-116): 75.9 µM (inactive)
GI50 (HL-60): 13.2 µM (inactive)
GI50 (DLD-1): 83.9 µM (inactive)
GI50 (HT-29): 29.9 µM (inactive)
GI50 (U-251): 34.8 µM (inactive)
GI50 (COLO 205): > 100 µM (inactive)
GI50 (MOLT-4): 22.9 µM (inactive)
GI50 (SNB-78): > 100 µM (inactive)
GI50 (SK-OV-3): > 100 µM (inactive)
GI50 (UO-31): 76.6 µM (inactive)
GI50 (M14): > 100 µM (inactive)
GI50 (SNB-19): 62.8 µM (inactive)
GI50 (KM12): 55.3 µM (inactive)
GI50 (OVCAR-8): 69.7 µM (inactive)
GI50 (SF-539): 74.6 µM (inactive)
GI50 (OVCAR-4): 10.7 µM (inactive)
GI50 (DMS-273): 51.5 µM (inactive)
GI50 (RXF 393): 27.5 µM (inactive)
GI50 (Malme-3M): 93.3 µM (inactive)
GI50 (NCI-H23): 4.98 µM (inactive)
GI50 (XF498): 32.7 µM (inactive)
GI50 (SK-MEL-28): 94.6 µM (inactive)
GI50 (UACC-257): 28.7 µM (inactive)
GI50 (A549): 98.2 µM (inactive)
GI50 (SNB-75): 46.7 µM (inactive)
GI50 (CCRF-CEM): 14.7 µM (inactive)
GI50 (SN12C): 76.6 µM (inactive)
GI50 (SF-268): 62.7 µM (inactive)
GI50 (NCI-H226): 88.5 µM (inactive)
GI50 (NCI-H460): 64.9 µM (inactive)
GI50 (CAKI-1): 58.3 µM (inactive)
GI50 (SW-620): 42.4 µM (inactive)
GI50 (KM-20L2): 46 µM (inactive)
GI50 (RPMI-8226): 25.9 µM (inactive)
GI50 (OVCAR-5): 32.7 µM (inactive)
GI50 (HOP-62): > 100 µM (inactive)
GI50 (SF-295): 36.5 µM (inactive)
GI50 (LOX IMVI): 44.2 µM (inactive)
GI50 (K562): 31.1 µM (inactive)
GI50 (SR): 27.3 µM (inactive)
GI50 (ACHN): 72.4 µM (inactive)
GI50 (786-0): 32.4 µM (inactive)
GI50 (NCI-H522): 27.7 µM (inactive)

N#CCC(=O)Nc1cccc(C(F)(F)F)c1
GI50 (UACC-62): > 100 µM (inactive)
GI50 (IGROV-1): > 100 µM (inactive)
GI50 (RXF 631): > 100 µM (inactive)
GI50 (LXFL 529): > 100 µM (inactive)
GI50 (A498): > 100 µM (inactive)
GI50 (M19-MEL): > 100 µM (inactive)
GI50 (OVCAR-3): 84.3 µM (inactive)
GI50 (EKVX): > 100 µM (inactive)
GI50 (HOP-18): 29.2 µM (inactive)
GI50 (SK-MEL-2): > 100 µM (inactive)
GI50 (SK-MEL-5): > 100 µM (inactive)
GI50 (HCC 2998): > 100 µM (inactive)
GI50 (TK-10): > 100 µM (inactive)
GI50 (HCT-15): > 100 µM
GI50 (HCT-116): > 100 µM (inactive)
GI50 (HL-60): > 100 µM (inactive)
GI50 (DLD-1): > 100 µM (inactive)
GI50 (HT-29): > 100 µM (inactive)
GI50 (U-251): > 100 µM (inactive)
GI50 (COLO 205): > 100 µM (inactive)
GI50 (MOLT-4): > 100 µM (inactive)
GI50 (SNB-78): > 100 µM (inactive)
GI50 (SK-OV-3): > 100 µM (inactive)
GI50 (UO-31): > 100 µM (inactive)
GI50 (M14): > 100 µM (inactive)
GI50 (SNB-19): > 100 µM (inactive)
GI50 (KM12): > 100 µM (inactive)
GI50 (OVCAR-8): > 100 µM (inactive)
GI50 (SF-539): > 100 µM (inactive)
GI50 (OVCAR-4): > 100 µM (inactive)
GI50 (DMS-273): > 100 µM (inactive)
GI50 (RXF 393): > 100 µM (inactive)
GI50 (Malme-3M): > 100 µM (inactive)
GI50 (NCI-H23): > 100 µM (inactive)
GI50 (XF498): > 100 µM (inactive)
GI50 (SK-MEL-28): > 100 µM (inactive)
GI50 (UACC-257): > 100 µM (inactive)
GI50 (A549): > 100 µM (inactive)
GI50 (SNB-75): > 100 µM (inactive)
GI50 (CCRF-CEM): > 100 µM (inactive)
GI50 (SN12C): > 100 µM (inactive)
GI50 (SF-268): > 100 µM (inactive)
GI50 (NCI-H226): > 100 µM (inactive)
GI50 (NCI-H460): > 100 µM (inactive)
GI50 (CAKI-1): > 100 µM (inactive)
GI50 (SW-620): > 100 µM (inactive)
GI50 (KM-20L2): > 100 µM (inactive)
GI50 (OVCAR-5): > 100 µM (inactive)
GI50 (HOP-62): > 100 µM (inactive)
GI50 (SF-295): > 100 µM (inactive)
GI50 (LOX IMVI): > 100 µM (inactive)
GI50 (K562): > 10 µM (inactive)
GI50 (SR): > 100 µM (inactive)
GI50 (ACHN): > 100 µM (inactive)
GI50 (786-0): > 100 µM (inactive)
GI50 (NCI-H522): > 100 µM (inactive)
